In paper PMC2705510, “Measurement of Nanomolar Dissociation Constants by Titration Calorimetry and Thermal Shift Assay – Radicicol Binding to Hsp90 and Ethoxzolamide Binding to CAII” (2009):

Molecular target: T1, Hsp90αN (N-terminal domain of human Hsp90α) (Homo sapiens, UniProt P07900)
T1 construct: gene HSP90AA1; N-terminal domain, amino acids 3–241, N-terminal His6 tag
Experiment: ITC; weak ligand displaced by radicicol (association constant Kb given)
Type: binding

Kd: 50 µM
Structure (SMILES): COCCOC(=O)c1ccc(O)cc1O [compound 1]
